Reference: US20260193668A1, “NOVEL PEPTIDES AND USE THEREOF FOR MODULATING PROTEIN ACCUMULATION” (UNIVERSITE TOULOUSE III - PAUL SABATIER, priority 2022, published 2026)

Legend:
Botrytis cinerea = assay: Infection assay of A. thaliana leaves inoculated with B. cinerea; assay type: in vivo; conditions: 100 μM peptide, compared with plants treated with an irrelevant peptide
Method: (§1) (a, b) Length of primary roots of A. thaliana seedlings treated with a Scrambled cPEPdcl1 or with a cPEPdcl1. (c) Relative chlorophyll content of A. thaliana seedlings treated with the corresponding peptide. (d) Resumption of growth of A. thaliana seedlings after heat shock at 45° C. for 45 min and treated with the corresponding peptide. (e) Relative lesion area of A. thaliana seedlings infected with B. cinerea and treated with the indicated peptide. (f) Measurement of the flowering day of A. thaliana plants treated with the indicated peptides. (g, h) Flowering day of A. thaliana plants treated with an irrelevant peptide or a mixture of cPEPs (targeting EIN2, BR11, BAK1 and WUS). (i, j) Leaf area of A. thaliana plants treated with an irrelevant peptide or a mixture of cPEPs (targeting EIN2, BR11, BAK1 and WUS).
(a) Quantification of CPK3 expression, using CPK3 antibodies, in peptide-treated A. thaliana plants. (b-c) Infection assay of peptide-treated A. thaliana leaves inoculated with B. cinerea spores.
Wild-type or mutant A. thaliana leaves were sprayed daily with 100 μM of peptide or 100 μM of the corresponding scramble version for 3 days. Six hours after the last treatment, five mature leaves per plant were inoculated with a 5 μL droplet of 2.5×10^5 spores/mL of Botrytis cinerea strain B05.10 diluted in 100 μM of peptide or its corresponding scramble version. After inoculation, plants were maintained at 100% relative humidity. Then, a 2 μL droplet of 100 μM of peptide or 100 μM of the corresponding scramble version was deposited daily on B. cinerea-infected leaves for 3 days (until symptoms appeared). Leaves were removed from the plants to determine lesion areas using the ImageJ programme. For tomato, the protocol was the same except that inoculation was carried out with 5,000 B. cinerea spores, without peptides. Peptides were added 1 h after inoculation (1 μL of 500 μM) and each day for two days with 5 μL of 100 μM peptide. For infection of M. truncatula with A. euteiches, plants were grown on agar medium and treated with 10 μL of 100 μM peptide, 24 h before, 24 h and 72 h after infection with 10 μL (1000 spores) of A. euteiches spores. Plants were harvested 7 days after inoculation for RNA extraction.

A. thaliana plants = assay: Flowering day of A. thaliana plants; assay type: in vivo, Arabidopsis thaliana; conditions: sprayed with 10 μM peptide three times a week until flowering
Method: as §1
N. benthamiana plants were treated by spraying the leaves 24 h before harvesting. For Luc assays, 100 μL of MS/2 liquid medium containing the peptides was added to each well. 5 μL of luciferin was added and luciferase activity was read 30 min later using a spectrophotometer. All other assays were performed by spraying or watering the plants. To quantify the protein level induced by cPEPs in Arabidopsis, rosettes were sprayed daily with 100 μM of peptide or its control for 5 days. Leaves were harvested 6 h after the last treatment for western blot analysis. For the flowering assay and chlorophyll content, 10-day-old Arabidopsis plants were sprayed with 500 μL of 10 μM peptide three times a week until flowering. Chlorophyll content was measured using the SPAD chlorophylometer (Konica Minolta). Leaf area was measured using ImageJ software. Barbarea vulgaris and A. hypochondriacus seedlings were treated immediately after sowing and 3 times a week with 500 μL of a 20 μM mixture of each peptide. For western blotting, a heat shock was performed by placing 20-day-old plants grown in 24-well plates on MS/2 for 90 min at 37° C. before harvesting. The plants were treated with 100 μM of peptide for 24 h. For the heat shock resistance test on A. thaliana, 3-day-old seedlings were treated for three days with 100 μM of peptide before placing the plants at 45° C. for 45 min. The plants were placed in a growth chamber to recover and treated 24 h after heat shock with 100 μM of peptide. For soybean heat shock, one-week-old seedlings were treated for 48 h, 24 h and 30 min before being placed at 45° C. for 24 h. For soybean growth, seedlings were treated 3 times a week for a fortnight with 500 μL of 100 μM peptide.

luciferase mRNA = assay: RNA-IP followed by PCR on plants treated with HA-tagged peptides; assay type: binding, Arabidopsis thaliana; conditions: anti-HA magnetic beads
Text: Analysis of luciferase expression in A. thaliana constitutively expressing the LUC transgene. (a) Agarose gel after PCR amplification of RNA obtained by immunoprecipitation using anti-HA magnetic beads, followed by RT-PCR, on plants treated with the indicated peptide (SC-HA: Scrambled cPEPluc-HA; Luc-HA: cPEPluc-HA). (b) Relative expression of the luciferase transgene in plants treated with the indicated peptide, quantified by RT-qPCR. (c-e) Relative quantification of LUC in plants treated with the indicated peptide. (f, g) Ratio between induction and quantification of LUC in plants treated with cPEPluc compared to plants treated with Scrambled cPEPluc, using different peptide concentrations (f) or taken at different time points (g). (h) Transcriptomic analysis of plants treated with cPEPluc-HA compared to plants treated with Scrambled cPEPluc-HA. (i) Proteomic analysis of plants treated with cPEPluc-HA compared to plants treated with Scrambled cPEPluc-HA. Protein expression was analysed by Western blots and quantified using ImageJ.
RNA co-immunoprecipitation was adapted from Merret et al. (Plant Physiol. 174:1216-1225. 2017). 400 mg of tissue powder was incubated in 3 mL of lysis buffer (200 mM Tris, pH 9.0, 110 mM potassium acetate, 0.5% Triton X-100, 0.1% Tween© 20, 5 mM DTT, 1.5% protease inhibitor and 80 units·ml-1 RNasin). […]

A. thaliana seedlings = assay: Relative chlorophyll content of A. thaliana; assay type: in vivo, Arabidopsis thaliana; conditions: sprayed with 10 μM peptide three times a week
Method: as §1
N. benthamiana plants were treated by spraying the leaves 24 h before harvesting. For Luc assays, 100 μL of MS/2 liquid medium containing the peptides was added to each well. 5 μL of luciferin was added and luciferase activity was read 30 min later using a spectrophotometer. […] To quantify the protein level induced by cPEPs in Arabidopsis, rosettes were sprayed daily with 100 μM of peptide or its control for 5 days. […] Chlorophyll content was measured using the SPAD chlorophylometer (Konica Minolta). Leaf area was measured using ImageJ software. […]

Aphanomyces euteiches = assay: M. truncatula seedlings infected with A. euteiches; assay type: in vivo; conditions: 100 μM peptide
Text: (§2) (a) FRET-FLIM analysis of the interaction between cPEPnsp1-FAM and NSP1 (left) or NSP1ΔcPEP (right) in planta. (b) qRT-PCR quantification of NSP1 expression in M. truncatula roots treated with cPEPnsp1 or Scrambled cPEPnsp1. (c) GUS quantification of peptide-treated M. truncatula roots carrying the Pro NSP1-NSP1-GUS fusion. (d, e) Quantification of NSP1 expression in N. benthamiana leaves after infiltration of different constructs: ‘wild type’ i.e. version of NSP1 wherein the cPEP sequence has been deleted (NSP1 ΔcPEP) or version of NSP1 wherein the cPEP sequence has been replaced by an artificial sequence (NSP1 ΔcPEP-cPEPartificial), with an empty vector (control) or cPEPnsp1 or cPEPartificial. (f, g) Formation of lateral roots of M. truncatula WT seedlings, nsp1 or overexpressing NSP1, in response to cPEPnsp1 or Scrambled cPEPnsp1. (h, i) Quantification of nodules on roots of M. truncatula roots treated with an irrelevant peptide or cPEPskl. (j) Root development of M. truncatula seedlings infected with A. euteiches and treated with an irrelevant peptide or cPEPrh10. (k) Relative expression of A. euteiches α-tubulin in M. truncatula seedlings infected with A. euteiches and treated with an irrelevant peptide or cPEPrh10.
Quantification of mRNAs was performed by qRT-PCR using appropriate primer pairs selected from the sequences: SEQ ID NOs: 367 to 374. […]

M. truncatula seedlings = assay: Formation of lateral roots of M. truncatula seedlings; assay type: in vivo, Medicago truncatula
Text: as §2, with “(j) Root development of M. truncatula seedlings infected with A. euteiches and treated with an irrelevant peptide or cPEPrh10. (k) Relative expression of A. euteiches α-tubulin in M. truncatula seedlings infected with A. euteiches and treated with an irrelevant peptide or cPEPrh10.” left out
In order to verify whether cPEPs can target any protein, the activity of 12 cPEPs targeting 12 different proteins for which antibodies were available was studied and validated in three different plant species. The question was whether the increase in the quantity of proteins observed after treatment with cPEP was sufficient to modulate plant development. […]

SEQ ID NO: 162 (RSSKTELWTR; cPEPcpk3)
lesion size (plant defence against Botrytis cinerea) (Botrytis cinerea): decrease

SEQ ID NO: 181 (NKGKTVEGWR; cPEPtap46)
plant development, measured by the day of flowering (A. thaliana plants): decrease

SEQ ID NO: 182 (ASGNETDEYD; cPEPspt)
plant development, measured by the day of flowering (A. thaliana plants): decrease

SEQ ID NO: 183 (SDFSSKYRED; cPEPga2ox7)
plant development, measured by the day of flowering (A. thaliana plants): decrease

SEQ ID NO: 184 (LRETDLKDRR; cPEPphyb)
plant development, measured by the day of flowering (A. thaliana plants): decrease

SEQ ID NO: 185 (VERRETPSGE; cPEPhag5)
plant development, measured by the day of flowering (A. thaliana plants): decrease

SEQ ID NO: 186 (HGEARDSEEV; cPEPshr)
plant development, measured by the day of flowering (A. thaliana plants): decrease

SEQ ID NO: 187 (KEPEQRKRKS; cPEPmapkkk3)
lesion size (plant defence against Botrytis cinerea) (Botrytis cinerea): decrease

SEQ ID NO: 188 (PLTGGRRDSK; cPEPmapkkk5_1)
lesion size (plant defence against Botrytis cinerea) (Botrytis cinerea): decrease

SEQ ID NO: 194 (ERKFRLHKSP; cPEPabcg34)
lesion size (plant defence against Botrytis cinerea) (Botrytis cinerea): decrease

SEQ ID NO: 195 (IRLDTGEEPD; cPEPagb1)
lesion size (plant defence against Botrytis cinerea) (Botrytis cinerea): decrease

SEQ ID NO: 198 (RHRNLVRLQG; AhBRI1)
plant development, measured by the day of flowering (A. thaliana plants): decrease

SEQ ID NO: 199 (ARGLAYLHE; AhBAK1)
plant development, measured by the day of flowering (A. thaliana plants): decrease

SEQ ID NO: 204 (NPVERSRHRD; cPEPein2_1)
plant development, measured by the day of flowering (A. thaliana plants): decrease

SEQ ID NO: 386: Scrambled peptide corresponding to HA-tagged cPEPluc (RNYKNGRTHLYPYDVPDYA; Scrambled cPEPluc-HA) [reference compound]
interaction with luciferase mRNA (RNA-IP followed by PCR) (luciferase mRNA): could not

SEQ ID NO: 406 (EKVVERRQRR; cPEPabi5)
chlorophyll content (A. thaliana seedlings): decreasing

SEQ ID NO: 407 (EWKKVKGKMS; cPEPsgr1)
chlorophyll content (A. thaliana seedlings): increasing

SEQ ID NO: 412 (QRLSLRNPLK; cPEPrh10)
root development (resistance to the pathogen) (Aphanomyces euteiches): increased
expression of A. euteiches α-tubulin in roots (Aphanomyces euteiches; 7 days after inoculation): decreased

cPEPjar1 (PETNFERDSS; cPEPjar1) [SEQ ID NO: 192, cPEP targeting the A. thaliana plant defence regulator JAR1]
lesion size (plant defence against Botrytis cinerea) (Botrytis cinerea): decrease

cPEPluc-HA: HA-tagged cPEPluc (KRYGLNTNHRYPYDVPDYA; cPEPluc-HA)
interaction with luciferase mRNA (RNA-IP followed by PCR) (luciferase mRNA): able to interact

cPEPmrb1 (NSEITKTAND; cPEPmrb1) [SEQ ID NO: 180]
plant development, measured by the day of flowering (A. thaliana plants): increased

cPEPnsp1 (DYGTKSNIRS; cPEPnsp1_3)
amount of lateral roots (M. truncatula seedlings; M. truncatula WT seedlings): decreased
sensitivity of lateral root formation to the peptide (M. truncatula seedlings; nsp1 mutant and NSP1-overexpressing M. truncatula): insensitive

cPEPshy2 (EENRSELLQR; cPEPshy2) [SEQ ID NO: 178]
plant development, measured by the day of flowering (A. thaliana plants): increased

cPEPwus (RWTPTTEQIK; cPEPwus) [SEQ ID NO: 196]
plant development, measured by the day of flowering (A. thaliana plants): decrease
